Measurements published in publication PMC3101112 (Cancer Management and Research, 2011).

Assays:
[1] = molecular target: p70S6K (Homo sapiens, UniProt P23443); assay: Biochemical inhibition profile, p70S6K; conditions: read-out: p70S6K percent inhibition at 20 μM
[2] = tested on: pERK T202Y204 in HUVEC (with BSA); assay: Cell-based target inhibition assay, HUVEC, VEGF, pERK with BSA; set-up: species or system human; conditions: Homo sapiens, read-out: Cell-Based Target Inhibition Assays IC50, pERK T202Y204 (with BSA)
[3] = tested on: MV4-11; assay: cells; type: cell-based; conditions: Homo sapiens, MV4-11, read-out: Cell-Based Antiproliferation Assay IC50
[4] = molecular target: EPHA8 (Homo sapiens, UniProt P29322); assay: Biochemical inhibition profile, EPHA8
[5] = tested on: RAF; assay: Biochemical inhibition profile, RAF; set-up: species or system Human; conditions: read-out: Biochemical Inhibition Profile IC50, RAF
[6] = tested on: pERK T202Y204 in HUVEC; assay: Cell-based target inhibition assay, HUVEC, VEGF, pERK; set-up: species or system human; conditions: Homo sapiens, read-out: Cell-Based Target Inhibition Assays IC50, pERK T202Y204
[7] = tested on: pFLT3; conditions: Western blotting; 200 mg; 10/13 patients; cited from earlier work

p70S6K, sequence (P23443 whole entry): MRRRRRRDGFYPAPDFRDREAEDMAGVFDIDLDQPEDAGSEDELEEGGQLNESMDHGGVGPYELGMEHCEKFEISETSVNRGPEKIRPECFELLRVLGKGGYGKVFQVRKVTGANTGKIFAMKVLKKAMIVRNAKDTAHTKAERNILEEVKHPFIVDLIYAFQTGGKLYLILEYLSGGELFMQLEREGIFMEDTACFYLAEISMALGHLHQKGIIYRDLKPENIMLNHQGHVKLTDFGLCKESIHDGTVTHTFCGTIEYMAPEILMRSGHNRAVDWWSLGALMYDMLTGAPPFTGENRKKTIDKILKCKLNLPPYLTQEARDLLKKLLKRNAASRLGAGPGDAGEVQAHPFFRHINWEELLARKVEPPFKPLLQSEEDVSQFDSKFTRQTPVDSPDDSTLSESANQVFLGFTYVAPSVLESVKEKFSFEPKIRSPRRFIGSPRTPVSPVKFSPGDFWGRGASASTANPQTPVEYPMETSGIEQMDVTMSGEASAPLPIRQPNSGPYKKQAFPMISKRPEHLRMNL
EPHA8, sequence (P29322 28-1005): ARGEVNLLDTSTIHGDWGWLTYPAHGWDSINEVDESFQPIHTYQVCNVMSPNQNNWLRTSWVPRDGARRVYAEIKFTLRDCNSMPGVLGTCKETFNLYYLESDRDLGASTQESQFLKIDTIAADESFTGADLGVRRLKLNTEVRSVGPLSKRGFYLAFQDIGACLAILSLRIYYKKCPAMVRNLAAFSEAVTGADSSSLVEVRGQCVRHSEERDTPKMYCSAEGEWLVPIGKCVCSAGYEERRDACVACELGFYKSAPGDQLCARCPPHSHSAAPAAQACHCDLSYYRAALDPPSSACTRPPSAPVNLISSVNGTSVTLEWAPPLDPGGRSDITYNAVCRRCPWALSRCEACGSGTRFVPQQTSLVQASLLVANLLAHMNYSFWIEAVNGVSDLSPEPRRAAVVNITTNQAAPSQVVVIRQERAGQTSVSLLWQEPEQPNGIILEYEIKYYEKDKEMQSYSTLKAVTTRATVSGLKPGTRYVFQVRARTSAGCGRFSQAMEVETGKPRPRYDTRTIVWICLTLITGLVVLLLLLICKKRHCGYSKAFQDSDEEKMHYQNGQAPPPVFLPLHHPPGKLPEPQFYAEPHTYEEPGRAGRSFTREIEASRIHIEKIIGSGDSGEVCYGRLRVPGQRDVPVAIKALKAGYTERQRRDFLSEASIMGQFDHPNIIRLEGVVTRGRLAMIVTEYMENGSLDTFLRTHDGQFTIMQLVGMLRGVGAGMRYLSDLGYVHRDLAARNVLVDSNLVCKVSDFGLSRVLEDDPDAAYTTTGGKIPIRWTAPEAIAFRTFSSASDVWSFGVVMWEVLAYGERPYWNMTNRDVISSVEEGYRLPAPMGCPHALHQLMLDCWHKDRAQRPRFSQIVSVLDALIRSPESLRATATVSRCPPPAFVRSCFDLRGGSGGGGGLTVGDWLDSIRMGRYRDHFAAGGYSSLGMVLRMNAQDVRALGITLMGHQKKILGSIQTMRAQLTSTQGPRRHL

inhibition at 20 µM [1] | IC50 [3] | IC50 [4] | IC50 [5] | SMILES | IC50 [2] | IC50 [6] | Patients with reduction of pFLT3 [7]
75.6% | 0.0117 µM |  |  | CNC(=O)c1cc(Oc2ccc(NC(=O)Nc3ccc(Cl)c(C(F)(F)F)c3)cc2)ccn1 [Sorafenib] | 0.038 µM |  | 
92.3% | 0.0196 µM | > 20 µM | > 20 µM | CCN(CC)CCNC(=O)c1c(C)[nH]c(/C=C2\C(=O)Nc3ccc(F)cc32)c1C [Sunitinib, reference compound] |  | 0.0287 µM | 77%
